# From patent US12275685B2, “Oligo-benzamide analogs and their use in cancer treatment” (Board of Regents, The University of Texas System, priority 2018, dated 2025)
# Tests used:
# [1] = tested on: OCa cells; experiment: MTT assay in OCa cells; format: cell-based
# Description: FIGS. 12A-12D show the effect of TK208 against ovarian cancer cell lines ES2 (FIGS. 12A & 12B) and SKOV3 (FIGS. 12C & 12D).
# FIGS. 42A-D: OCa cells were treated with ERX-11 (FIG. 42A) or ERX-208 (FIG. 42B). Primary OCa cells derived from ascites were treated with ERX-208 for 72 h (FIG. 42C) and cell viability by MTT assays. (FIG. 42D) Effect of ERX-208 on viability of IOSE cells was measured using MTT assays and TOV21G was used as +ve control.
# ERX-208. […] Functionally, ERX-208 causes growth inhibition of OCa cells, as noted by MTT assays using five established OCa cells (ES2, SKOV3, A2780, TOV21G, TOV112D) and five primary OCa cells derived from HGSOC patient ascites (AS21, AS23, AS25, AS28, AS29) (FIGS. 42B-C). […] The inventor noted an IC50 of ˜50-100 nM for ERX-208 both for inducing ERS and in reducing the growth of OCa cells.
# [2] = tested on: MCF-7 MT-ERα Y537S cells; format: cell-based; details: 200 nM
# [3] = tested on: MCF-7 MT-ERα Y537S and D538G cells; format: cell-based; details: comparators at 200 nM in MCF-7 MT-ERα Y537S cells
# [4] = tested on: MT-ERα; experiment: RNA sequencing of MT-ERα transcriptional programme; format: cell-based; details: MCF-7 and ZR-75 cells expressing D538G and Y537S MT-ERα
# Source text: FIGS. 66A-D: (FIG. 66A) Effect of ERX-315 on ERa DNA binding on the promoters of 5 canonical ERα-regulated genes with ERa ChIP in MCF-7 expressing D538G MT-ERα in the absence and presence of estradiol.
# Prior studies have shown that MT-ERα drives a canonical ERα transcriptional programme, both in the absence and presence of estradiol. RNA sequencing studies indicate that ERX-315 alters the transcriptional heatmap in MCF-7 and ZR-75 cells expressing D538G and Y537S MT-ERα (FIG. 66B, data shown for MCF-7 cells expressing D538G MT-ERα).
# [5] = tested on: MT-ERα; experiment: MT-ERα protein levels; format: cell-based
# [6] = molecular target: T1, lipase activity of LIPA (Homo sapiens, UniProt P38571); experiment: Lipase activity assay; format: biochemical; details: SUM-159 cells
# T1 construct: lipase activity of parental SUM-159 (WT) and SUM-159 cells with LIPA KO; endogenous in cells; host or cells: SUM-159 (parental)
# Source text: FIGS. 39A-N: (FIGS. 39A-E) Predicted binding mode of ERX-41 (colored in green) on the human lysosomal acid lipase (LAL, PDB code: 6V7N, LXXLL (SEQ ID NO: 1) domain colored in orange). (FIG. 39F) PDB structure of LAL protein showing relative positions of the catalytic domain (with H274Y MT) and the LXXLL (SEQ ID NO: 1) domain (L242P MT). (FIG. 39G) Evaluation of the effect of ERX-41 and lalistat (known lipase inhibitor) on lipase activity of parental SUM-159 (WT) and SUM-159 cells with LIPA KO. (FIG. 39H) Evaluation of basal lipase activity in parental SUM-159 (WT), SUM-159 cells with LIPA KO (KO), SUM-159 cells with LIPA KO and with reconstitution of either WT LIPA (KO+WT), H274Y MT-LIPA (KO+H274Y), DLXXLL (SEQ ID NO: 2) MT-LIPA (KO+DLXXLL (SEQ ID NO: 2)) or L242P MT-LIPA (KO+L242P). Protein expression of LAL and control vinculin in these cells are shown below (FIG. 391) Cellular lysates from described SUM-159 cells were incubated with biotinylated ERX-11 or biotinylated ERX-41 and then subject to a streptavidin column. Elutants were then evaluated for LIPA pulldown by western blotting. (FIG. 39J) Dose response curve to increasing concentrations of ERX-41 in described SUM-159 cells. (FIGS. 39K-M) Effect of vehicle or 1 μM ERX-41 on induction of UPR genes at the protein level (FIG. 39K) or RNA level (FIGS. 39L-M). […]
# [7] = tested on: ovarian cancer cells; experiment: Growth inhibition of ovarian cancer cells; format: cell-based
# Source text: FIGS. 10A & 10B show effects of TK208 against cancer cells.
# (§1) In addition, another tris-benzmaide compound TK208 was synthesized and tested against breast cancer and ovarian cancer cell lines (FIGS. 10-15). […] These compounds (e.g., TK41, TK208, TK308 (FIG. 21), TK309 (FIG. 22), TK314, TK315) are extremely potent compounds that inhibit tumor growth and kill breast and ovarian cancer cells and as such, they are superb therapeutic candidates for such diseases.
# [8] = tested on: breast cancer cells; experiment: Growth inhibition of breast cancer cells; format: cell-based; details: relative to ovarian cancer cells
# Source text: as §1
# [9] = tested on: WT- and MT-ERα-driven cell lines (MCF-7, ZR-75); experiment: Anti-proliferative activity in WT- and MT-ERα-driven cell lines; format: cell-based
# [10] = molecular target: T2, vitamin D receptor (VDR) (Homo sapiens, UniProt P11473); experiment: Vitamin D receptor inhibition; format: cell-based
# T2 construct: endogenous in cells; host or cells: cancer cells
# [11] = tested on: BC cells expressing MT-ERα (MCF-7, ZR-75, T47-D); experiment: Cell titer glo antiproliferative assay in MT-ERα BC cells; format: cell-based; details: T47-D Y537S MT
# Source text: FIG. 52: Comparative efficacy of TX-542 and SERDs in BC cells expressing WT and/or MT ERα: Using CRISPR-Cas9, both copies of WT ERα genes were knocked out in ZR-75 and T47-D, while only one copy of WT Era was knocked out in MCF-7 cells. Following knockout of WT ERα clones with stable expression of either Y537S ERα MT or the D538G ERα MT were selected. […] ERα-negative TNBC cells (SUM-159 and MDA-MB-231) were used as controls. Dose response curves were generated for ERX-11, TX-542 and SERDs using cell titer glo assays. IC50 values for each cell line and drug were calculated and tabulated. Tam=tamoxifen, ICI=fulvestrant, GDC-0810=Genentech SERD, AZD-9496 Astra Zeneca SERD, RAD-1901=Radius SERD, Palbo=Palbociclib. IC50 values<50 nM are shown in red.
# TX-542. TX-542 was potent (IC50˜20-50 nM) as an antiproliferative agent against expressing MT-ERα, both in genetically modified MCF-7 cells with one WT-ERα allele and one MT-ERα allele introduced by CRISPR and genetically modified ZR-75 or T47-D cells in which both copies of WT-ERα alleles were replaced using CRISPR with MT-ERα. TX-542 had no activity against ER-null (SUM-159 or MDA-MB-231 cells) or non-tumorigenic breast epithelial cells, such as human mammary epithelial cells (HMEC). […] In addition, these agents are not able to consistently target all the MT-ERα forms in distinct genetic contexts, as shown in FIG. 52 and as reported by others.
# [12] = tested on: ZR-75 MT-ERα cells; experiment: Colony formation, ZR-75 MT-ERα; format: cell-based
# Description: The 200 nM dose for these drugs reflects the level at which each of these drugs has a significant effect on spheroid formation in the MCF-7 WT-ERa cells. Taken together, these studies indicate that TX-542 has significant activity against both WT-ERα and MT-ERα driven ERα+ BC cell lines and is a worthwhile candidate for further study.
# T1 sequence (P38571 77-399): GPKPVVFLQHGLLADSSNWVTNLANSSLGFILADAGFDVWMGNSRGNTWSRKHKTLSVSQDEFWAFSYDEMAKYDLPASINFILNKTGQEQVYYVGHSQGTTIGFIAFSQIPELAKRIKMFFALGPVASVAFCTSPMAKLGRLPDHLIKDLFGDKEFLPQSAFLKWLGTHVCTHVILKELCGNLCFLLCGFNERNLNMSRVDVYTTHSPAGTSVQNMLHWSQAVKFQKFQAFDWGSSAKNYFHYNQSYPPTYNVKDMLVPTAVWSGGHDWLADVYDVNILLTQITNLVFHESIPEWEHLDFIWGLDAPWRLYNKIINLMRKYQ
# T2 sequence (P11473 whole entry): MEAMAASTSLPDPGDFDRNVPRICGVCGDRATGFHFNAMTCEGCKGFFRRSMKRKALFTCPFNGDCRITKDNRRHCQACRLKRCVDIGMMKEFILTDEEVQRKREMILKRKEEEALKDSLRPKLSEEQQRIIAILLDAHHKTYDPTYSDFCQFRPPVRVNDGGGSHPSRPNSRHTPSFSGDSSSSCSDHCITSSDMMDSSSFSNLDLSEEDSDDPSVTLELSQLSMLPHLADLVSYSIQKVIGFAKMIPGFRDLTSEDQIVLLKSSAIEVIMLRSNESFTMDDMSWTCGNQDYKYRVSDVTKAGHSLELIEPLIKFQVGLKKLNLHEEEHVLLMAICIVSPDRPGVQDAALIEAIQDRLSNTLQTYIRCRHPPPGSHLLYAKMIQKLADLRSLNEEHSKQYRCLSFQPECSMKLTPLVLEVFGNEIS
structure (smiles),measurement,setting,value
"CC(C)COc1cc(C(N)=O)ccc1NC(=O)c1ccc(NC(=O)c2ccc([N+](=O)[O-])c(OCCO)c2)c(OCC(C)C)c1 [ERX-11, reference compound]",activity against OCa cells / cell viability,[1],limited activity
same,soft agar colony formation,[2],"neither the parental ERX-11, tamoxifen nor GDC0810 SERD (at the same concentrations) had an effect on colony formation"
same,spheroid size or architecture,[3],"neither ERX-11, palbociclib, GDC-0810 nor AZD-9496, tamoxifen nor fulvestrant (at 200 nM) significantly disrupted spheroid size or architecture"
CC/C(=C(\c1ccccc1)c1ccc(OCCN(C)C)cc1)c1ccccc1 [tamoxifen],soft agar colony formation,[2],"neither the parental ERX-11, tamoxifen nor GDC0810 SERD (at the same concentrations) had an effect on colony formation"
same,spheroid size or architecture,[3],"neither ERX-11, palbociclib, GDC-0810 nor AZD-9496, tamoxifen nor fulvestrant (at 200 nM) significantly disrupted spheroid size or architecture"
same,MT-ERα transcriptional programme,[4],neither tamoxifen nor ERX-314 is able to alter the ERα-regulated transcriptome
CC/C(=C(/c1ccc(/C=C/C(=O)O)cc1)c1ccc2[nH]ncc2c1)c1ccc(F)cc1Cl [GDC-0810],soft agar colony formation,[2],"neither the parental ERX-11, tamoxifen nor GDC0810 SERD (at the same concentrations) had an effect on colony formation"
same,spheroid size or architecture,[3],"neither ERX-11, palbociclib, GDC-0810 nor AZD-9496, tamoxifen nor fulvestrant (at 200 nM) significantly disrupted spheroid size or architecture"
same,ability to decrease MT-ERα protein levels,[5],neither fulvestrant nor GDC-0810 were able to decrease MT-ERα protein levels
"O=C(Oc1nsnc1N1CCCCC1)N1CCCCC1 [lalistat, reference compound]",effect on lipase activity of LIPA,[6],attenuated lipase activity
CC(C)COc1cc(C(=O)Nc2ccc(C(=O)N[C@H]3CC[C@H](C)CC3)cc2OCC(C)C)ccc1NC(=O)c1ccc(F)c(OCCO)c1 [TK314],IC50,[7],10 to 50 nM
same,activity against ovarian cancer cells,[7],unique activity against ovarian cancer cells
same,activity against breast cancer cells,[8],significantly less activity against breast cancer cells
same,IC50,[9],1500 to 5000 nM
same,MT-ERα transcriptional programme,[4],neither tamoxifen nor ERX-314 is able to alter the ERα-regulated transcriptome
CC(C)COc1cc(C(=O)Nc2ncc[nH]2)ccc1NC(=O)c1ccc(NC(=O)c2ccc([N+](=O)[O-])c(OCCO)c2)c(OCC(C)C)c1 [YL144],inhibition of VDR,[10],high potency
C[C@@H]1Cc2c([nH]c3ccccc23)[C@@H](c2c(F)cc(/C=C/C(=O)O)cc2F)N1CC(C)(C)F [AZD-9496],activity against T47-D Y537S MT,[11],potent activity
same,soft agar colony formation,[2],significantly affected colony formation
same,colony formation in ZR-75 MT-ERα cells,[12],activity was not seen
same,spheroid size or architecture,[3],"neither ERX-11, palbociclib, GDC-0810 nor AZD-9496, tamoxifen nor fulvestrant (at 200 nM) significantly disrupted spheroid size or architecture"
